Results on 9 molecules are retold here after patent publication US10245275B2 (ViiV HEALTHCARE UK (NO.4) LIMITED, priority 2014, dated 2019).

For test [1], the system named is HIV-1 NL4-3 gag A364V virus. The test is described as follows: microbe, parasite or virus in culture. It counts as cell-based. How it is done: (§1) MT-2 cells and 293T cells were obtained from the NIH AIDS Research and Reference Reagent Program. MT-2 cells were propagated in RPMI 1640 media supplemented with 10% heat-inactivated fetal bovine serum, […]. The 293T cells were propagated in DMEM media supplemented with 10% heat-inactivated fetal bovine serum (FBS), 100 units/mL penicillin G and 100 μg/mL streptomycin. […] A recombinant NL4-3 virus, in which a section of the nef gene from NL4-3 was replaced with the Renilla luciferase gene, was used as a reference virus. In addition, residue Gag P373 was converted to P373S. […] Transfections were performed in 293T cells using LipofectAMINE PLUS from Invitrogen (Carlsbad, Calif.), according to manufacturer's instruction. The virus was titered in MT-2 cells using luciferase enzyme activity as a marker. Luciferase was quantitated using the Dual Luciferase kit from Promega (Madison, Wis.), with modifications to the manufacturer's protocol. The diluted Passive Lysis solution was pre-mixed with the re-suspended Luciferase Assay Reagent and the re-suspended Stop & Glo Substrate (2:1:1 ratio). Fifty (50) μL of the mixture was added to each aspirated well on assay plates and luciferase activity was measured immediately on a Wallac TriLux (Perkin-Elmer). Antiviral activities of inhibitors toward the recombinant virus were quantified by measuring luciferase activity in cells infected for 4-5 days with NLRluc recombinants in the presence serial dilutions of the inhibitor.
Both recombinant viruses were used as described above in the HIV cell culture assay for the NL4-3 virus.

Test [2] relates to WT (wild-type HIV virus; recombinant NL4-3 virus). Description: microbe, parasite or virus in culture. It counts as cell-based, HIV-1. How it is done:
as §1
WT refers to wild-type HIV virus. […]

Where [3] appears, read: Human immunodeficiency virus 1, NL43, MT2, read-out: A364V (EC50, uM), Table 1 regular screen, MT-2 cells, luciferase readout.
The mark [4] stands for this setting: Human immunodeficiency virus 1, NL43, MT2, read-out: WT (EC50, uM), Table 1 regular screen, MT-2 cells, luciferase readout.
[5] abbreviates: Human immunodeficiency virus 1, NL43, MT2, read-out: A364V (EC50, uM), Table 1 regular screen, class symbol.
The mark [6] stands for this setting: Human immunodeficiency virus 1, NL43, MT2, read-out: WT (EC50, uM), Table 1 regular screen, class symbol.

Read-outs that look alike come from different tables or passages of the source.

Regarding `C=C(C)[C@@H]1CC[C@]2(NCC[C@]3(O)CC[C@@H](S(C)(=O)=O)CC3)CC[C@]3(C)[C@H](CC[C@@H]4[C@@]5(C)CC=C(C6=CC[C@](CF)(C(=O)O)CC6)C(C)(C)[C@@H]5CC[C@]43C)[C@@H]12` [Example 2-19, (S)-1-(fluoromethyl)-4-((1R,3aS,5aR,5bR,7aR,11aS,11bR,13aR,13bR)-3a-((2-((cis)-1-hydroxy-4-(methylsulfonyl)cyclohexyl)ethyl)amino)-5a,5b,8,8,11a-pentamethyl-1-(prop-1-en-2-yl)-2,3,3a,4,5,5a,5b,6,7,7a,8,11,11a,11 b,12,13,13a,13b-octadecahydro-1H-cyclopenta[a]chrysen-9-yl)cyclohex-3-enecarboxylic acid], the EC50 was 0.0222 µM in test [1] (setting [3]) and 0.00135 µM in test [2] (setting [4]).
Regarding `C=C(C)[C@@H]1CC[C@]2(NCCC3(O)CCN(S(C)(=O)=O)CC3)CC[C@]3(C)[C@H](CC[C@@H]4[C@@]5(C)CC=C(C6=CC[C@](CF)(C(=O)O)CC6)C(C)(C)[C@@H]5CC[C@]43C)[C@@H]12` [Example 2-14, (S)-1-(fluoromethyl)-4-((1R,3aS,5aR,5bR,7aR,11aS,11bR,13aR,13bR)-3a-((2-(4-hydroxy-1-(methylsulfonyl)piperidin-4-yl)ethyl)amino)-5a,5b,8,8,11a-pentamethyl-1-(prop-1-en-2-yl)-2,3,3a,4,5,5a,5b,6,7,7a,8,11,11a,11b,12,13,13a,13b-octadecahydro-1H-cyclopenta[a]chrysen-9-yl)cyclohex-3-enecarboxylic acid], the EC50 in test [1] (setting [3]) was found to be 0.0431 µM; in test [2] (setting [4]), 0.00256 µM.
As to `C=C(C)[C@@H]1CC[C@]2(NCCO)CC[C@]3(C)[C@H](CC[C@@H]4[C@@]5(C)CC=C(C6=CC[C@@](CF)(C(=O)O)CC6)C(C)(C)[C@@H]5CC[C@]43C)[C@@H]12` [Example 19, (R)-1-(fluoromethyl)-4-((1R,3aS,5aR,5bR,7aR,11aS,11bR,13aR,13bR)-3a-((2-hydroxyethyl)amino)-5a,5b,8,8,11a-pentamethyl-1-(prop-1-en-2-yl)-2,3,3a,4,5,5a,5b,6,7,7a,8,11,11a,11b,12,13,13a,13b-octadecahydro-1H-cyclopenta[a]chrysen-9-yl)cyclohex-3-enecarboxylic acid], the EC50 in test [1] (Human immunodeficiency virus 1, NL43, MT2, read-out: A364V (EC50, uM)) is above 0.05 µM; in test [2] (Human immunodeficiency virus 1, NL43, MT2, read-out: WT (EC50, uM)), below 0.05 µM.
Consider `C=C(C)[C@@H]1CC[C@]2(NCCN3CCNC3=O)CC[C@]3(C)[C@H](CC[C@@H]4[C@@]5(C)CC=C(C6=CC[C@](CF)(C(=O)O)CC6)C(C)(C)[C@@H]5CC[C@]43C)[C@@H]12` [Example 2-25, (S)-1-(fluoromethyl)-4-((1R,3aS,5aR,5bR,7aR,11aS,11bR,13aR,13bR)-5a,5b, 8,8,11a-pentamethyl-3a-((2-(2-oxoimidazolidin-1-yl)ethyl)amino)-1-(prop-1-en-2-yl)-2,3,3a,4,5,5a,5b,6,7,7a,8,11,11a,11b,12,13,13a,13b-octadecahydro-1H-cyclopenta[a]chrysen-9-yl)cyclohex-3-enecarboxylic acid], for which the values for the EC50 in test [1] (setting [5]) and in test [2] (setting [6]) were above 0.05 µM and below 0.05 µM, respectively.
For `C=C(C)[C@@H]1CC[C@]2(NCCC(C)(C)O)CC[C@]3(C)[C@H](CC[C@@H]4[C@@]5(C)CC=C(C6=CC[C@](CF)(C(=O)O)CC6)C(C)(C)[C@@H]5CC[C@]43C)[C@@H]12` [Example 2-1, (S)-1-(fluoromethyl)-4-((1R,3aS,5aR,5bR,7aR,11aS,11bR,13aR,13bR)-3a-((3-hydroxy-3-methylbutyl)amino)-5a,5b,8,8,11a-pentamethyl-1-(prop-1-en-2-yl)-2,3,3a,4,5,5a,5b,6,7,7a,8,11,11a,11b,12,13,13a,13b-octadecahydro-1H-cyclopenta[a]chrysen-9-yl)cyclohex-3-enecarboxylic acid], the EC50 in test [1] (setting [5]) is above 0.05 µM; in test [2] (setting [6]), below 0.05 µM.
Consider `C=C(C)[C@@H]1CC[C@]2(NCCN3CCSCC3C(=O)O)CC[C@]3(C)[C@H](CC[C@@H]4[C@@]5(C)CC=C(C6=CC[C@@](CF)(C(=O)O)CC6)C(C)(C)[C@@H]5CC[C@]43C)[C@@H]12` (stereo partly drawn) [Example 18, 4-(2-(((1R,3aS,5aR,5bR,7aR,11aS,11bR,13aR,13bR)-9-((R)-4-carboxy-4-(fluoromethyl)cyclohex-1-en-1-yl)-5a,5b,8,8,11a-pentamethyl-1-(prop-1-en-2-yl)-2,3,3a,4,5,5a,5b,6,7,7a,8,11,11a,11b,12,13,13a,13b-octadecahydro-1H-cyclopenta[a]chrysen-3a-yl)amino)ethyl)thiomorpholine-3-carboxylic acid], for which the EC50 was 3 µM in test [1] (setting [3]) and 0.0243 µM in test [2] (setting [4]).
As for `C=C(C)[C@@H]1CC[C@]2(NCCC3(O)CCS(=O)(=O)CC3)CC[C@]3(C)[C@H](CC[C@@H]4[C@@]5(C)CC=C(C6=CC[C@](CF)(C(=O)O)CC6)C(C)(C)[C@@H]5CC[C@]43C)[C@@H]12` [Example 2-13, (S)-1-(fluoromethyl)-4-((1R,3aS,5aR,5bR,7aR,11aS,11bR,13aR,13bR)-3a-((2-(4-hydroxy-1,1-dioxidotetrahydro-2H-thiopyran-4-yl)ethyl)amino)-5a,5b,8,8,11a-pentamethyl-1-(prop-1-en-2-yl)-2,3,3a,4,5,5a,5b,6,7,7a,8,11,11a,11b,12,13,13a,13b-octadecahydro-1H-cyclopenta[a]chrysen-9-yl)cyclohex-3-enecarboxylic acid], the concentration giving a half-maximal response (EC50) was above 0.05 µM in test [1] (setting [5]) and below 0.05 µM in test [2] (setting [6]).
Taken in the same sequence, the figures for `C=C(C)[C@@H]1CC[C@]2(NCC(=O)N3CCOCC3)CC[C@]3(C)[C@H](CC[C@@H]4[C@@]5(C)CC=C(C6=CC[C@](CF)(C(=O)O)CC6)C(C)(C)[C@@H]5CC[C@]43C)[C@@H]12` [Example 32, (S)-1-(fluoromethyl)-4-((1R,3aS,5aR,5bR,7aR,11aS,11bR,13aR,13bR)-5a,5b, 8,8,11a-pentamethyl-3a-((2-morpholino-2-oxoethyl)amino)-1-(prop-1-en-2-yl)-2,3,3a,4,5,5a,5b,6,7,7a,8,11,11a,11b,12,13,13a,13b-octadecahydro-1H-cyclopenta[a]chrysen-9-yl)cyclohex-3-enecarboxylic acid] were above 0.05 µM and below 0.05 µM.
With `C=C(C)[C@@H]1CC[C@]2(NCCC(C)C)CC[C@]3(C)[C@H](CC[C@@H]4[C@@]5(C)CC=C(C6=CC[C@](CF)(C(=O)O)CC6)C(C)(C)[C@@H]5CC[C@]43C)[C@@H]12` [Example 2-7, (S)-1-(fluoromethyl)-4-((1R,3aS,5aR,5bR,7aR,11aS,11bR,13aR,13bR)-3a-(isopentylamino)-5a,5b,8,8,11a-pentamethyl-1-(prop-1-en-2-yl)-2,3,3a,4,5,5a,5b,6,7,7a,8,11,11a,11b,12,13,13a,13b-octadecahydro-1H-cyclopenta[a]chrysen-9-yl)cyclohex-3-enecarboxylic acid], the figures for the EC50 in test [1] (setting [3]) and in test [2] (setting [4]) were 3 µM and 0.116 µM, respectively.
